Laboratory results published in patent US20140088073A1, “METHODS FOR DETERMINING WHETHER A PATIENT SHOULD BE ADMINISTERED A DRUG THAT INHIBITS CHOLESTEROL ABSORPTION” (Boston Heart Diagnostics Corporation, priority 2012, published 2014).

Legend:
[1] = test system: hypercholesterolemic subjects; assay: EASE study post hoc analysis: plasma lipids, apolipoproteins and hs-CRP, ezetimibe add-on to ongoing statin therapy; type: in vivo, human; settings: for Triglyceride / Apo A1 / Apo B / HDL-C / Non-HDL-C / Total C / Total C/HDL-C ratio / LDL-C / hs-CRP: baseline during ongoing statin therapy, by statin type; for Apo A1 / Apo B / HDL-C / Non-HDL-C / Total C / Total C/HDL-C ratio / LDL-C: mean ± SD; for LDL-C: Friedewald formula; for hs-CRP: median ± robust SD; for reductions from baseline in LDL-C / mean percent LDL-C reduction / percent LDL-C reduction from baseline: 6 weeks; for reductions from baseline in LDL-C: unadjusted data; for mean percent LDL-C reduction / percent change from baseline in LDL-C / percent change from baseline in non-HDL-C / percent change from baseline in total C/HDL-C: ezetimibe add-on
Procedure: (§1) Briefly, hypercholesterolemic subjects (n=874) on statins received ezetimibe 10 mg/day. Plasma lipids, lathosterol, and β-sitosterol were measured at baseline and on treatment.
(§2) This study included subjects from the ezetimibe add-on to statin arm of the EASE study (http://clinicaltrials.gov identifier NCT00092586; Study Protocol 040). Details of the study design and outcomes have been published previously. (See Pearson T A, Denke M A, McBride P E, Battisti W P, Brady W E, Palmisano J. A community-based, randomized trial of ezetimibe added to statin therapy to attain NCEP ATP III goals for LDL cholesterol in hypercholesterolemic patients: the ezetimibe add-on to statin for effectiveness (EASE) trial. Mayo Clin Proc 2005; 80:587-95; Pearson T A, Denke M A, McBride P E, et al. Effectiveness of ezetimibe added to ongoing statin therapy in modifying lipid profiles and low-density lipoprotein cholesterol goal attainment in patients of different races and ethnicities: a substudy of the Ezetimibe add-on to statin for effectiveness trial. Mayo Clin Proc 2006; 81:1177-85.)
(§3) Briefly, the EASE study was a multicenter, randomized, double-blind, placebo-controlled, 6-week parallel-group study. Participants with hypercholesterolemia were recruited from community based practices across the United States. Inclusion criteria were: 1) age ≧18 years, 2) on a stable, approved dose of any statin, 3) following a cholesterol-lowering diet for ≧6 weeks before study entry, and 4) LDL-C levels above risk-based NCEP ATP III targets. Subjects receiving lipid-altering agents other than statins during the 6 weeks before screening were excluded. Patients were randomized to receive ezetimibe 10 mg/day or placebo plus their current statin therapy and dose for 6 weeks. Statin type and dose were maintained throughout the study. The research protocol was approved by the investigational review boards at each site, and all participants provided written informed consent prior to study start.
(§4) For this current post hoc analysis, we assessed subjects who were randomized into the ezetimibe 10 mg plus statin arm of the EASE study (n=1940). Of the 1124 subjects with samples available for measurement, only those who had complete sterol and lipid data at baseline and at the end of the 6-week study were included in this analysis (n=874). The mean age and other baseline characteristics of those included and excluded from this analysis were similar. Comparison of subjects was based on statin type or potency (low, medium, high) subgroups. The low potency statin group (predicted LDL-C reduction of ˜20-30%) included subjects receiving simvastatin ≦10 mg/day, lovastatin ≦20 mg/day, pravastatin ≦20 mg/day, and fluvastatin ≦40 mg/day. The medium potency statin group (predicted LDL-C reduction of ˜31-45%) included subjects receiving simvastatin >10 to ≦40 mg/day, atorvastatin ≦20 mg/day, lovastatin >20 to 80 mg/day, pravastatin >20 to 80 mg/day, and fluvastatin >40 to 80 mg/day.
(§5) Plasma total cholesterol (total C), high-density lipoprotein cholesterol (HDL-C), and triglycerides (TG) were analyzed using standardized methods at the central laboratory of the trial (PPD Global Central Labs, Highland Heights, Kentucky, USA). LDL-C was calculated using the Friedewald formula. (See Friedewald W T, Levy R I, Fredrickson D S. Estimation of the concentration of low-density lipoprotein cholesterol in plasma, without use of the preparative ultracentrifuge. Clin Chem 1972; 18:499-502.) Non-HDL-C was calculated by subtracting HDL-C from total C. Apolipoprotein (Apo) A-I, Apo B, and high-sensitivity C-reactive protein (hs-CRP) were measured by automated immunoassays at the central laboratory. Within and between coefficients for all assays were <10%. Plasma lathosterol and β-sitosterol were quantified by gas chromatography mass spectrometry after lipid extraction as previously described in Sudhop T, Lutjohann D, Kodal A, et al. Inhibition of intestinal cholesterol absorption by ezetimibe in humans. […]

[2] = test system: hypercholesterolemic subjects; assay: EASE study post hoc analysis: plasma lathosterol and β-sitosterol by gas chromatography mass spectrometry; type: in vivo, human; settings: for B-sitosterol / B-sitosterol/Lathosterol / B-sitosterol/Total C / Lathosterol / Lathosterol/Total C: baseline during ongoing statin therapy, by statin type, mean ± SD
Procedure: as §1, §2, §3, §4, §5

[3] = test system: patients with coronary heart disease; settings: comparing sterol/cholesterol ratios; previous studies; cited from earlier work
[4] = literature; cited from earlier work
[5] = subjects with baseline sitosterol/lathosterol above the median
[6] = subjects with baseline sitosterol/lathosterol ≦ the median
[7] = overall study population, ezetimibe add-on to statin, 6 weeks

CC[C@H](C)C(=O)O[C@H]1C[C@H](O)C=C2C=C[C@H](C)[C@H](CC[C@@H](O)C[C@@H](O)CC(=O)O)[C@H]21 [Pravastatin, pravastatin]
Triglyceride [1]: 155.0 ± 80.0 mg/dL
Apo A1 [1]: 160.5 ± 28.2 mg/dL
Apo B [1]: 131.3 ± 26.0 mg/dL
HDL-C [1]: 48.6 ± 12.0 mg/dL
Non-HDL-C [1]: 166.9 ± 34.5 mg/dL
Total C [1]: 215.5 ± 34.9 mg/dL
Total C/HDL-C ratio [1]: 4.65 ± 1.25
LDL-C [1]: 133.1 ± 28.3 mg/dL
hs-CRP [1]: 2.70 ± 4.09 mg/L
B-sitosterol [2]: 4.72 ± 2.51 µmol/L
B-sitosterol/Lathosterol [2]: 2.11 ± 2.10
B-sitosterol/Total C [2]: 0.86 ± 0.48 μmol/mmol
Lathosterol [2]: 3.08 ± 1.69 µmol/L
Lathosterol/Total C [2]: 0.55 ± 0.26 μmol/mmol

CCC(C)(C)C(=O)O[C@H]1C[C@@H](C)C=C2C=C[C@H](C)[C@H](CC[C@@H]3C[C@@H](O)CC(=O)O3)[C@H]21 [Simvastatin, simvastatin]
Triglyceride [1]: 149.0 ± 88.4 mg/dL
Apo A1 [1]: 157.7 ± 26.3 mg/dL
Apo B [1]: 125.8 ± 23.2 mg/dL
HDL-C [1]: 48.2 ± 11.8 mg/dL
Non-HDL-C [1]: 157.4 ± 30.2 mg/dL
Total C [1]: 205.5 ± 31.4 mg/dL
Total C/HDL-C ratio [1]: 4.46 ± 1.10
LDL-C [1]: 124.3 ± 26.1 mg/dL
hs-CRP [1]: 2.50 ± 3.81 mg/L
B-sitosterol [2]: 4.33 ± 2.17 µmol/L
B-sitosterol/Total C [2]: 0.82 ± 0.40 μmol/mmol
Lathosterol [2]: 2.47 ± 1.68 µmol/L
Lathosterol/Total C [2]: 0.46 ± 0.28 μmol/mmol

CC(C)c1c(C(=O)Nc2ccccc2)c(-c2ccccc2)c(-c2ccc(F)cc2)n1CC[C@@H](O)C[C@@H](O)CC(=O)O [Atorvastatin, atorvastatin]
increase of plant sterols [3]: 82%
reduction of precursor sterols [3]: −50%
Triglyceride [1]: 149.0 ± 85.6 mg/dL
Apo A1 [1]: 156.3 ± 26.1 mg/dL
Apo B [1]: 129.2 ± 25.4 mg/dL
HDL-C [1]: 47.8 ± 10.7 mg/dL
Non-HDL-C [1]: 162.0 ± 33.6 mg/dL
Total C [1]: 209.7 ± 35.4 mg/dL
Total C/HDL-C ratio [1]: 4.55 ± 1.05
LDL-C [1]: 130.0 ± 30.9 mg/dL
hs-CRP [1]: 2.40 ± 3.53 mg/L
B-sitosterol [2]: 5.40 ± 2.93 µmol/L
B-sitosterol/Lathosterol [2]: 4.22 ± 4.39
B-sitosterol/Total C [2]: 1.01 ± 0.57 μmol/mmol
Lathosterol [2]: 2.20 ± 1.70 µmol/L
Lathosterol/Total C [2]: 0.39 ± 0.26 μmol/mmol

O=C1[C@H](CC[C@H](O)c2ccc(F)cc2)[C@@H](c2ccc(O)cc2)N1c1ccc(F)cc1 [ezetimibe]
LDL-C lowered by ([1]; addition of ezetimibe to any statin): 23-26%
reductions from baseline in LDL-C ([1]; ezetimibe 10 mg/day added to ongoing high potency statin): −29.1%
reductions from baseline in LDL-C ([1]; ezetimibe 10 mg/day added to ongoing low potency statin): −22.7%
reductions from baseline in LDL-C ([1]; ezetimibe 10 mg/day added to ongoing medium potency statin): −25.0%
mean percent LDL-C reduction ([1]; high potency statin group): 29.1%
mean percent LDL-C reduction ([1]; low potency statin group): 22.7%
mean percent LDL-C reduction ([1]; medium potency statin group): 25.0%
percent change from baseline in LDL-C [1, 5]: −26.7%
percent change from baseline in non-HDL-C [1, 5]: −24.2%
percent change from baseline in total C/HDL-C [1, 5]: −19.0%
percent change from baseline in LDL-C [1, 6]: −24.1%
percent change from baseline in non-HDL-C [1, 6]: −21.6%
percent change from baseline in total C/HDL-C [1, 6]: −17.0%
percent LDL-C reduction from baseline ([1]; ezetimibe combination with ongoing atorvastatin): 26.4%
percent LDL-C reduction from baseline ([1]; ezetimibe combination with ongoing lovastatin or fluvastatin): 24.1%
percent LDL-C reduction from baseline ([1]; ezetimibe combination with ongoing pravastatin): 23.1%
percent LDL-C reduction from baseline ([1]; ezetimibe combination with ongoing simvastatin): 26.4%
reduces LDL-C levels by [4]: 15-20%
mean lathosterol levels increased by [2, 7]: 52%
mean lathosterol/cholesterol ratio increased by [2, 7]: 83.8%
mean β-sitosterol levels decreased by [2, 7]: 47.4%
mean β-sitosterol/cholesterol ratio decreased by [2, 7]: 36.3%
overall percent change in the mean β-sitosterol/lathosterol ratio [2, 7]: −52.4%
